Inconclusive results and toxic doses are left out.

Among the data in PubChem BioAssay AID328 (DTP/NCI, 2004) are T/C values, retold here.

This test concerns BDF1 mice, P388 leukemia ip, median survival T/C. The test is described as follows: NCI In Vivo Anticancer Drug Screen. Data for tumor model P388 Leukemia (intraperitoneal) in B6D2F1 (BDF1) mice. The note with it: endpoint: median survival time, higher = longer survival. The method, boiled down:
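T/C = treated-group survival ÷ vehicle-control survival; tumour transplanted into mice before dosing.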

The mark [1] stands for this setting: dose: 50.0 mg/kg/injection, schedule: Q04DX003 (ip), vehicle: saline.
[2] abbreviates: dose: 400.0 mg/kg/injection, schedule: Q04DX003 (ip), vehicle: saline with Tween-80.
Where [3] appears, read: dose: 100.0 mg/kg/injection, schedule: Q01DX009 (ip), vehicle: Klucel (hydroxypropylcellulose) (HPC).
Where [4] appears, read: dose: 200.0 mg/kg/injection, schedule: Q01DX009 (ip), vehicle: Klucel (hydroxypropylcellulose) (HPC).
The mark [5] stands for this setting: dose: 100.0 mg/kg/injection, schedule: Q01DX009 (ip), vehicle: saline.
[6] abbreviates: dose: 100.0 mg/kg/injection, schedule: Q04DX003 (ip), vehicle: Klucel (hydroxypropylcellulose) (HPC).
Setting [7] is: dose: 200.0 mg/kg/injection, schedule: Q04DX003 (ip), vehicle: Klucel (hydroxypropylcellulose) (HPC).
[8] abbreviates: dose: 200.0 mg/kg/injection, schedule: Q04DX003 (ip), vehicle: other.
The mark [9] stands for this setting: dose: 400.0 mg/kg/injection, schedule: Q04DX003 (ip), vehicle: other.

As for `Nc1ccn(C2OC(COP(=O)(O)O)C(O)C2O)c(=O)n1` (configuration not stated), the T/C reads like this: (dose: 4.2 mg/kg/injection, schedule: Q04DX003 (ip), vehicle: saline with Tween-80) 113 % of control; (dose: 6.3 mg/kg/injection, schedule: Q04DX003 (ip), vehicle: saline with Tween-80) 113 % of control; (dose: 9.6 mg/kg/injection, schedule: Q04DX003 (ip), vehicle: saline) 150 % of control; under setting [1], 159 % of control; (dose: 75.0 mg/kg/injection, schedule: Q04DX003 (ip), vehicle: saline) 172 % of control; (dose: 100.0 mg/kg/injection, schedule: Q01DX009 (ip), vehicle: saline with Tween-80) 187 % of control. Further, the T/C was 172 % of control (dose: 115.0 mg/kg/injection, schedule: Q04DX003 (ip), vehicle: saline with Tween-80); 168 % of control (dose: 175.0 mg/kg/injection, schedule: Q04DX003 (ip), vehicle: saline with Tween-80); 112 % of control (dose: 200.0 mg/kg/injection, schedule: Q01DX009 (ip), vehicle: saline with Tween-80); 181 % of control (dose: 264.0 mg/kg/injection, schedule: Q04DX003 (ip), vehicle: saline with Tween-80); 154 % of control under setting [2]; 177 % of control (dose: 600.0 mg/kg/injection, schedule: Q04DX003 (ip), vehicle: saline with Tween-80).

As for `OC1(c2ccncc2)C=CCC1` (configuration not stated), the T/C is 100 % of control (dose: 25.0 mg/kg/injection, schedule: Q04DX002 (ip), vehicle: saline with Tween-80); 106 % of control (dose: 50.0 mg/kg/injection, schedule: Q04DX002 (ip), vehicle: saline with Tween-80); 97 % of control (dose: 100.0 mg/kg/injection, schedule: Q04DX002 (ip), vehicle: saline with Tween-80).

With `CC1=NNC(=O)C1CCO` (configuration not stated), the T/C (dose: 50.0 mg/kg/injection, schedule: Q01DX009 (ip), vehicle: Klucel (hydroxypropylcellulose) (HPC)) was 86 % of control; the T/C under setting [3] was 104 % of control; the T/C (dose: 175.0 mg/kg/injection, schedule: Q01DX009 (ip), vehicle: Klucel (hydroxypropylcellulose) (HPC)) was 90 % of control; the T/C under setting [4] is 122 % of control; the T/C (dose: 265.0 mg/kg/injection, schedule: Q01DX009 (ip), vehicle: Klucel (hydroxypropylcellulose) (HPC)) is 104 % of control; the T/C (dose: 400.0 mg/kg/injection, schedule: Q01DX009 (ip), vehicle: Klucel (hydroxypropylcellulose) (HPC)) is 95 % of control.

Regarding `C[C@]12CCC(=O)C[C@@H]1CC[C@@H]1[C@@H]2CC[C@]2(C)[C@@H](OC(=O)N(CCCl)N=O)CC[C@@H]12`, under setting [5], the T/C was 100 % of control.

As for `[Cl][Co][Cl].[NH-]CCN1CC1`, the T/C (dose: 25.0 mg/kg/injection, schedule: Q04DX003 (ip), vehicle: saline) was 103 % of control; the T/C under setting [1] is 107 % of control; the T/C (dose: 100.0 mg/kg/injection, schedule: Q04DX003 (ip), vehicle: saline) is 103 % of control.

For `NC(=S)N/N=C\c1ncnc2nc[nH]c12`, the T/C (dose: 1.0 mg/kg/injection, schedule: Q01DX009 (ip), vehicle: Klucel (hydroxypropylcellulose) (HPC)) was 107 % of control; the T/C (dose: 2.0 mg/kg/injection, schedule: Q01DX009 (ip), vehicle: Klucel (hydroxypropylcellulose) (HPC)) was 111 % of control; the T/C (dose: 4.0 mg/kg/injection, schedule: Q01DX009 (ip), vehicle: Klucel (hydroxypropylcellulose) (HPC)) was 150 % of control; the T/C (dose: 8.0 mg/kg/injection, schedule: Q01DX009 (ip), vehicle: Klucel (hydroxypropylcellulose) (HPC)) is 160 % of control; the T/C (dose: 16.0 mg/kg/injection, schedule: Q01DX009 (ip), vehicle: Klucel (hydroxypropylcellulose) (HPC)) is 175 % of control; the T/C (dose: 32.0 mg/kg/injection, schedule: Q01DX009 (ip), vehicle: Klucel (hydroxypropylcellulose) (HPC)) is 185 % of control.

In the case of `COC(OC)c1cc(=O)[nH]c(NC(=O)C(Cl)Cl)n1`, the T/C was 112 % of control (dose: 100.0 mg/kg/injection, schedule: Q04DX003 (ip), vehicle: saline with Tween-80); 95 % of control (dose: 200.0 mg/kg/injection, schedule: Q04DX003 (ip), vehicle: saline with Tween-80); 104 % of control under setting [2].

With `CCOC(=O)CC/[N+]([O-])=C/c1ccccc1`, the T/C was 97 % of control (dose: 12.5 mg/kg/injection, schedule: Q01DX009 (ip), vehicle: other); 112 % of control (dose: 25.0 mg/kg/injection, schedule: Q01DX009 (ip), vehicle: other); 92 % of control (dose: 50.0 mg/kg/injection, schedule: Q01DX009 (ip), vehicle: other); 97 % of control (dose: 100.0 mg/kg/injection, schedule: Q01DX009 (ip), vehicle: other); 104 % of control (dose: 200.0 mg/kg/injection, schedule: Q01DX009 (ip), vehicle: other).

Regarding `CCCCS(=N)(=O)CC[C@H](N)C(=O)O` (some centres not stated), the T/C by setting is: (dose: 50.0 mg/kg/injection, schedule: Q01DX005 (ip), vehicle: saline) 96 % of control; (dose: 100.0 mg/kg/injection, schedule: Q01DX005 (ip), vehicle: saline) 96 % of control; (dose: 200.0 mg/kg/injection, schedule: Q01DX005 (ip), vehicle: saline) 91 % of control; (dose: 400.0 mg/kg/injection, schedule: Q01DX005 (ip), vehicle: saline) 91 % of control.

In the case of `c1ccc(CC(Cc2ccccc2)NC2=NCCO2)cc1`, the T/C (dose: 6.25 mg/kg/injection, schedule: Q04DX003 (ip), vehicle: saline with Tween-80) was 100 % of control; the T/C (dose: 12.5 mg/kg/injection, schedule: Q04DX003 (ip), vehicle: saline with Tween-80) is 100 % of control; the T/C (dose: 25.0 mg/kg/injection, schedule: Q04DX003 (ip), vehicle: saline with Tween-80) was 100 % of control.

As to `Nc1nc(=S)c2ncn(C3OC(COC(=O)c4ccc([N+](=O)[O-])cc4)C(OC(=O)c4ccc([N+](=O)[O-])cc4)C3OC(=O)c3ccc([N+](=O)[O-])cc3)c2[nH]1` (configuration not stated), the T/C was 111 % of control under setting [3], 91 % of control under setting [6], 103 % of control under setting [4] and 91 % of control under setting [7].

As for `NOCc1ccsn1`, the T/C runs as follows: under setting [8], 95 % of control; under setting [9], 90 % of control.

For the compound `O=S(=O)(Nc1c(Cl)c(Cl)c(Cl)c(Cl)c1NS(=O)(=O)c1ccccc1)c1ccccc1`, the T/C reads like this: under setting [6], 100 % of control; under setting [7], 105 % of control; (dose: 400.0 mg/kg/injection, schedule: Q04DX003 (ip), vehicle: Klucel (hydroxypropylcellulose) (HPC)) 100 % of control.

Take `CCCCN=C(N)N=C(N)N`: the T/C runs as follows: (dose: 50.0 mg/kg/injection, schedule: Q01DX009 (ip), vehicle: saline) 105 % of control; under setting [5], 108 % of control.

On to `O=C(O)c1ccc(C(Cl)(Cl)Cl)cc1`, for which the T/C by setting is: (dose: 18.75 mg/kg/injection, schedule: Q01DX009 (ip), vehicle: Klucel (hydroxypropylcellulose) (HPC)) 95 % of control; (dose: 33.0 mg/kg/injection, schedule: Q01DX009 (ip), vehicle: saline with Tween-80) 116 % of control; (dose: 50.0 mg/kg/injection, schedule: Q01DX009 (ip), vehicle: saline with Tween-80) 112 % of control; (dose: 75.0 mg/kg/injection, schedule: Q01DX009 (ip), vehicle: saline with Tween-80) 108 % of control; (dose: 150.0 mg/kg/injection, schedule: Q01DX009 (ip), vehicle: saline with Tween-80) 123 % of control.

Consider `CCCCN(C)/N=N/c1[nH]ncc1C(=O)OCC`, for which the T/C is 116 % of control (dose: 100.0 mg/kg/injection, schedule: Q04DX003 (ip), vehicle: other); 108 % of control under setting [8]; 100 % of control under setting [9].

Regarding `CCN1/C(=C/C=C/C=C\C=C\c2sc3ccc4ccccc4c3[n+]2CC)Sc2ccc3ccccc3c21`, the T/C is, setting by setting: (dose: 1.56 mg/kg/injection, schedule: Q04DX002 (ip), vehicle: saline with Tween-80) 173 % of control; (dose: 3.12 mg/kg/injection, schedule: Q04DX002 (ip), vehicle: saline with Tween-80) 162 % of control.
